# Test results from patent publication US20050049229A1, “Therapeutic applications of 2-hydroxyacetanilide” (priority 2003, published 2005).
# Read-outs that look alike come from different tables or passages of the source. Marks after values point to notes of the source that are not given here.
# Legend:
# [1] = tested on: carrageenan-induced rat-paw oedema; test: carrageenan-induced rat paw oedema (plethysmographic method); type: in vivo; conditions: for Mean paw volume ± SEM after 5 hr: 30 min before carrageenan; for Anti-inflammatory Activity Mean ± SEM: A−B/A×100 vs control, in %
# Protocol: The plethysmographic method (Winter et al., Proc. Soc. Exp. Biol. Med. III, 1962, pp. 544-547) was then used for recording the volume changes in the rat paw. […] Another two groups received paracetamol at a dose of 300 or 500 mg kg^−1, and a further two groups received aspirin at a dose of 150 or 300 mg kg^−1, while the control group received saline or distilled water. […] The difference in paw volumes before and after the carrageenan injections indicated the volume of inflammation. Anti-inflammatory activities were calculated as A−B/A×100, where A and B denote mean paw volume of control and drug-treated animals respectively.
# PAF-induced mortality = test: prevention of PAF-induced mortality in rabbits; type: in vivo, rabbit
# Protocol: Male rabbits (New Zealand White, 3-3.5 kg) were used to test the ability of 2-hydroxyacetanilide, paracetamol and aspirin to prevent the lethality of intravenous PAF.
# PAF was prepared before each injection by dissolution in saline to give a final concentration of 22 μg ml^−1. The resulting solution was injected into the marginal ear vein of the rabbits over a period of approximately 1 minute. In preliminary experiments it was established that an intravenous dose of 11 μg kg^−1 PAF was required to induce consistently fatal pulmonary thrombosis in the animals (n=6). This dose of PAF was used in subsequent experiments with 2-hydroxyacetanilide and paracetamol.
# Rabbits were pretreated by intraperitoneal injection of either 2-hydroxyacetanilide (100 or 300 mg kg^−1), paracetamol (300 or 500 mg kg^−1) or aspirin (50 mg kg^−1) 2 hours before the challenging dose of PAF. Each animal was used for only one experiment.
# [2] = tested on: platelet aggregation induced by AA, PAF or collagen; test: in vitro platelet aggregation in human platelet rich plasma; type: cell-based; conditions: human PRP
# Protocol: Blood was drawn by vein puncture from healthy human volunteers reported to be free of medications for at least one week. The blood samples were mixed with 3.8% w/v sodium citrate solution (9:1) and centrifuged at 260 g for 15 minutes at 20° C. to obtain platelet rich plasma (PRP). The platelet count was determined by phase contrast microscopy and all aggregation studies were carried out at 37° C. with PRP having platelet counts between 2.5 and 3.0×10^8/ml of plasma. All experiments were performed within 2 hours of PRP preparation.
# Platelet aggregation was monitored using a Dual-channel Lumi-aggregometer (Model 400 Chronolog Corporation, Chicago, USA) using 0.45 ml aliquots of PRP. The final volume was made up to 0.5 ml with the test compound dissolved either in normal saline or an appropriate solvent known to be devoid of any effect on aggregation. Aggregation was induced by arachidonic acid (AA), platelet activating factor (PAF) or collagen.
# Anti-platelet aggregation effects were studied by pretreatment of PRP with 2-hydroxyacetanilide or paracetamol for 1 minute followed by the addition of the maximum dose of agonist (i.e. AA, PAF or collagen). The resulting aggregation was monitored for 5 minutes following agonist addition by the change in light transmission as a function of time.
# The results were expressed as percentage inhibition after the addition of aggregation agents compared with controls. Once the anti-platelet aggregation activity of the inhibitors against these agonists was established, dose-response curves were constructed to calculate the IC50 values of the inhibitors.
# [3] = tested on: platelet aggregation induced by AA, PAF or collagen; test: in vivo platelet aggregation (PRP from orally dosed rabbits); set-up: species or system rabbit; conditions: Oryctolagus cuniculus, 500 mg/kg oral, blood 2 hours after
# Protocol: Both 2-hydroxyacetanilide and paracetamol were tested for in vivo platelet aggregation activity at a dose of 500 mg kg^−1. The compounds were first separately dissolved in 0.5% w/v gum tragacanth and then administered orally to albino rabbits of either sex. Control groups received only the vehicle.
# Blood was drawn from the marginal ear of the rabbits 2 hours after drug administration. The blood was then mixed with 3.8% w/v sodium citrate solution (9:1) and centrifuged at 260 g for 15 minutes at 20° C. to prepare platelet rich plasma (PRP). The platelet count was determined by phase contrast microscopy and all aggregation studies were carried out at 37° C. with PRP having platelet counts between 2.5 and […] /ml of plasma. The experiments were performed within 2 hours of PRP preparation.
# Platelet aggregation was monitored using a Dual-Channel Lumi-aggregometer (Model 400 Chronolog Corporation, Chicago, USA) using 0.45 ml aliquots of PRP. Aggregation was induced with platelet activating factor (PAF, 0.8 μM), collagen (20 μg mL^−1) or arachidonic acid (AA, 1.7 mM).
# [4] = tested on: acetic acid induced writhing; test: acetic acid induced writhing test in mice; type: in vivo, mouse; conditions: for No. of writhings: 30 min before 1% acetic acid IP, counted 10 minutes
# Protocol: Analgesia was assessed by the method of Koster et al. (Federation Proceedings, 1959, 18, pp. 412-416), otherwise known as the acetic acid induced writhing test. When acetic acid is injected intraperitoneally it causes abdominal contractions or writhings, a syndrome characterized by a wave of contraction of the abdominal musculature followed by extension of hind limbs. By counting the number of writhes a measure of the effective analgesia provided can be obtained.
# Male Wister mice (20-25 g) were divided into six groups, with five mice per group, for use in the writhing assay. The compounds 2-hydroxyacetanilide or paracetamol were administered orally 30 minutes prior to an intraperitoneal injection of 1% acetic acid. Immediately after administering the acetic acid, the number of writhings were counted and recorded for the subsequent 10 minutes. Analgesic potency was taken as difference between a test group mean and its control.
# [5] = overdose, about twenty 500 mg tablets; cited from earlier work
# [6] = tested on: platelet aggregation induced by collagen, arachidonic acid (AA) and adenosine diphosphate (ADP); conditions: Dupin et al.; cited from earlier work
Structure (SMILES),Mean paw volume ± SEM after 5 hr ([1]; dose 150 mg/kg) [mL],Anti-inflammatory Activity Mean ± SEM ([1]; dose 150 mg/kg),Mean paw volume ± SEM after 5 hr ([1]; dose 500 mg/kg) [mL],Anti-inflammatory Activity Mean ± SEM ([1]; dose 500 mg/kg),Survival (PAF-induced mortality; 50 mg/kg IP 2 hours before PAF 11 μg/kg IV),Mean paw volume ± SEM after 5 hr ([1]; dose 300 mg/kg) [mL],Anti-inflammatory Activity Mean ± SEM ([1]; dose 300 mg/kg),"IC50 ([2]; aggregation agent AA, read-out: IC50 ± SEM, platelet aggregation induced by AA) [µM]","IC50 ([2]; aggregation agent PAF, read-out: IC50 ± SEM, platelet aggregation induced by PAF) [µM]","IC50 ([2]; aggregation agent collagen, read-out: IC50 ± SEM, platelet aggregation induced by Collagen) [µM]","inhibition at 500 mg/kg ([3]; AA 1.7 mM, read-out: % inhibition of in vivo platelet aggregation induced by AA) [%]","inhibition at 500 mg/kg ([3]; PAF 0.8 μM, read-out: % inhibition of in vivo platelet aggregation induced by PAF) [%]",Survival (PAF-induced mortality; 300 mg/kg IP 2 hours before PAF 11 μg/kg IV),Survival (PAF-induced mortality; 500 mg/kg IP 2 hours before PAF 11 μg/kg IV),No. of writhings ([4]; 300 mg/kg oral),No. of writhings ([4]; 500 mg/kg oral),"inhibition at 300 mg/kg ([4]; Mus musculus, 300 mg/kg oral) [%]","inhibition at 500 mg/kg ([4]; Mus musculus, 500 mg/kg oral) [%]",dose that may cause hepatocellular necrosis [5] [g],in vitro inhibition of platelet aggregation [6]
CC(=O)Oc1ccccc1C(=O)O [Aspirin],0.58 ± 0.08,28 ± 9,0.23 ± 0.03,71 ± 3,7/10*,,,,,,,,,,,,,,,
"CC(=O)Nc1ccc(O)cc1 [Paracetamol, 4-hydroxyacetanilide]",,,0.72 ± 0.07,10 ± 3,,0.75 ± 0.06,6 ± 2,136 ± 1,167 ± 8,263 ± 1,5 ± 3,8 ± 2,0/10,2/10,20,3.2,33,89,≥ 10,
CC(=O)Nc1cccc(O)c1 [3-hydroxyacetanilide],,,,,,,,,,,,,,,,,,,,comparable in vitro inhibition
